Reference: publication PMC5611513, “Structure-Based Prototype Peptides Targeting the Pseudomonas aeruginosa Type VI Secretion System Effector as a Novel Antibacterial Strategy” (Frontiers in Cellular and Infection Microbiology, 2017)
Substitutions are numbered along the chain they refer to.

Legend:
E. coli BL21 (DE3) = experiment: Cell-toxicity assay, spot growth on LB agar; format: cell-based, Escherichia coli; conditions: 0.045 mM IPTG, 24 h; for decrease of growth inhibition on expression of mutated “L” peptide: E. coli BL21 (DE3) expressing TplE-TplEi and mutated peptide, compared with “L” peptide
Protocol: Cell-toxicity assay was carried as previously described with minor modification (Jiang et al., [2016]). […] A 2 μl bacterial dilution was spotted onto LB agar plate containing 0.045 mM IPTG. Images were taken after 24 h growth.
(A) Diagrams of TplE, TplE-TplEi and “L” peptide expressing constructs. Expression of vector sequence and “L” peptide mutant with the PelB signal peptide was used as a control. […] A 10-fold serial dilution of overnight culture was spotted on LB agar plates from left to right. The experiments were performed at least 3 times.

TplEi E219A mutant = target: T1, TplEi E219A mutant (Pseudomonas aeruginosa, UniProt Q9I3K3, E219A); experiment: ITC of the “L” peptide with TplEi mutant E219A; format: binding
T1 sequence (Q9I3K3 1-380 E219A): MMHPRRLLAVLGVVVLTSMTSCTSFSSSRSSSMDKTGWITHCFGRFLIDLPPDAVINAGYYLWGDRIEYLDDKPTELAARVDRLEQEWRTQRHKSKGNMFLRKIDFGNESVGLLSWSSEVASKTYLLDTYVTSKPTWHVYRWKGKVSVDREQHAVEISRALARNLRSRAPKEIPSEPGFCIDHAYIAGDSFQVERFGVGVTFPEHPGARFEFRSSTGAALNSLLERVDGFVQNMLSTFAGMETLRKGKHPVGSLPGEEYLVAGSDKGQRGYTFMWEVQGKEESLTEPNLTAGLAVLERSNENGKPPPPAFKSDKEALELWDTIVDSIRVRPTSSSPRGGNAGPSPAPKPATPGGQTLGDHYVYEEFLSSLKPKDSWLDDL
Protocol: (§1) Isothermal titration calorimetry (ITC) assay was performed with a MicroCalTM iTC200 calorimeter (MicroCal, USA) at 25°C; both the protein and peptides were dissolved with the same buffer (20 mM Tris-HCl, pH = 8.0, 100 mM NaCl). The concentration of TplEi was between 0.03 and 0.04 mM. The concentrations of wild type peptides and mutants were between 1 and 2 mM. Titration was scheduled with 18 consecutive injections of 2 μl of peptide with a 120 s interval between injections, using a stirring rate of 600 rpm. Data acquisition and analysis were performed using MicroCal Origin software (version 7.0).
(§2) To further elucidate the mechanism underlying the “L” peptide binding, we mutated several key residues of TplEi interacting with the “L” peptide, and measured the binding affinity of the “L” peptide to these TplEi mutants using ITC. The side chain of K100 of the “L” peptide forms four hydrogen bonds with TplEi, among which only one involves side chain interaction with S215 of TplEi, whereas the other three involve backbone atoms. […] Similarly, we prepared TplEi mutants E219A and R266A, respectively. E219 forms a hydrogen bond with backbone NH group of K100 of the “L” peptide, and R266 forms two hydrogen bonds with the carbonyl group of W96 of the peptide (Figure 3A).

TplEi R266A mutant [1] = target: T2, TplEi R266A mutant (Pseudomonas aeruginosa, UniProt Q9I3K3); experiment: ITC of the “L” peptide with TplEi mutant R266A; format: binding; conditions: 25°C, TplEi R266A, Figure S3
T2 sequence (Q9I3K3 1-380 R226A): T1 sequence (Q9I3K3 1-380 E219A) with A219E, R226A
Protocol: as §1, §2

TplEi R266A mutant [2] = target: T3, TplEi R266A mutant (Pseudomonas aeruginosa, UniProt Q9I3K3, R226A, form not given); experiment: ITC of the “L” peptide with TplEi mutant R266A; format: binding; conditions: TplEi R266A vs wild type TplEi
T3 sequence (Q9I3K3 1-380 R226A): T1 sequence (Q9I3K3 1-380 E219A) with A219E, R226A
Protocol: as §1, §2

TplEi S215A mutant = target: T4, TplEi S215A mutant (Pseudomonas aeruginosa, UniProt Q9I3K3, S215A); experiment: ITC of the “L” peptide with TplEi mutant S215A; format: binding
T4 sequence (Q9I3K3 1-380 S215A): T1 sequence (Q9I3K3 1-380 E219A) with S215A, A219E
Protocol: as §1, §2

TplEi = target: T5, TplEi (Pseudomonas aeruginosa, UniProt Q9I3K3); experiment: Isothermal titration calorimetry (ITC) of TplE peptides with wild type TplEi; format: binding; conditions: for Kd: 25°C, 20 mM Tris-HCl pH 8.0, 100 mM NaCl, A peptides (WT) and its mutants, Figure 3D,E; for effect of the mutation on “L” peptide binding to TplEi: result in words, compared to WT peptide
T5 sequence (Q9I3K3 1-380): T1 sequence (Q9I3K3 1-380 E219A) with A219E
Protocol: as §1

Substance	Kd (TplEi) [µM]	effect of the mutation on “L” peptide binding to TplEi (TplEi)	also measured
Ac-DDLFASIGALWTWAWRGPKARQELLKAEQVEVDD-NH2 [“L” peptide]	–	–	growth inhibition on expression of the peptide (E. coli BL21 (DE3); E. coli BL21 (DE3) expressing periplasmic-targeted TplE-TplEi and peptide, 10-fold serial dilutions, at least 3 experiments): significant TplE-dependent growth inhibition; Kd (TplEi E219A mutant; 25°C, TplEi E219A, Figure S3): 35.5 µM; decreased binding affinity (TplEi E219A mutant; TplEi E219A vs wild type TplEi): 284 folds; Kd (TplEi R266A mutant [1]): 46.9 µM; decreased binding affinity (TplEi R266A mutant [2]): 375 folds; Kd (TplEi S215A mutant; 25°C, TplEi S215A, Figure S3): 7.8 µM; reduced binding affinity comparing to wild type TplEi (TplEi S215A mutant; TplEi S215A vs wild type TplEi): ~62 folds
Ac-DDLFASAGALWTWAWRGPKARQELLKAEQVEVDD-NH2 [I88A]	4.8	–	–
Ac-DDLFASIGALWTWAWRGAKARQELLKAEQVEVDD-NH2 [P99A]	0.057	increased binding affinity	–
Ac-DDLFASIGALWTWAARGPKARQELLKAEQVEVDD-NH2 [W96A]	0.031	increased binding affinity	–
Ac-DDLFASIGALWTWAWRAPKARQELLKAEQVEVDD-NH2 [G98A]	1.31	–	–
Ac-DDLFASIGALATWAWRGPKARQELLKAEQVEVDD-NH2 [W92A]	50	–	decrease of growth inhibition on expression of mutated “L” peptide (E. coli BL21 (DE3)): moderate decreased growth inhibition
Ac-DDLFASIGAAWTWAWRGPKARQELLKAEQVEVDD-NH2 [L91A]	3.7	–	–
DDLFASIGALWTWAWRGPEARQELLKAEQVEVDD [K100E]	–	completely abolished	decrease of growth inhibition on expression of mutated “L” peptide (E. coli BL21 (DE3)): strong
